Data published in ChEMBL document CHEMBL4017480, “Discovery and optimization of selective FGFR4 inhibitors via scaffold hopping” (Bioorg Med Chem Lett, 2017).

Tests used:
[1] = target: T1, Tyrosine-protein kinase BTK (Homo sapiens, UniProt Q06187); assay: Inhibition of human BTK using KVEKIGEGTYGVVYK as substrate measured after 120 mins in presence of [gamma33P]ATP by P81 ion exchange chromatographic method
Cytochrome P450 3A4 = Cytochrome P450 3A4 (Homo sapiens, UniProt P08684); assay: Inhibition of CYP3A4 in human liver microsomes using midazolam as substrate pretreated for 10 mins followed by substrate addition measured after 10 mins in presence of NADPH by LC-MS/MS method; type: ADME
Sequence of Cytochrome P450 3A4 (P08684 whole entry): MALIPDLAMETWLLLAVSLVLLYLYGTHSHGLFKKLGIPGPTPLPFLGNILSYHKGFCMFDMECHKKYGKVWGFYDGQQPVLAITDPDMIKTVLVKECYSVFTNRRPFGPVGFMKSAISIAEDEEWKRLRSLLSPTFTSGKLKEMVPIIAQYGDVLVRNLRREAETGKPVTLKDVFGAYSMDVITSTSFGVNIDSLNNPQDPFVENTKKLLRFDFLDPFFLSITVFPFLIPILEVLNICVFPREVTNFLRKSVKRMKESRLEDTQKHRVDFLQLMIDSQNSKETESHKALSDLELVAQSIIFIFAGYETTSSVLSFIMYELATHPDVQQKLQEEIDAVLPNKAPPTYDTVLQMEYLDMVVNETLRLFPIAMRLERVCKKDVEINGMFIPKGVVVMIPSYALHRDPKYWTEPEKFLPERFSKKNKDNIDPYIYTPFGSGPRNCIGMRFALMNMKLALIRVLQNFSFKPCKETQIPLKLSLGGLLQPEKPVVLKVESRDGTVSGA

Cytochrome P450 2C9 = Cytochrome P450 2C9 (Homo sapiens, UniProt P11712); assay: Inhibition of CYP2C9 in human liver microsomes using diclofenac as substrate pretreated for 10 mins followed by substrate addition measured after 10 mins in presence of NADPH by LC-MS/MS method; type: ADME
Sequence of Cytochrome P450 2C9 (P11712 whole entry): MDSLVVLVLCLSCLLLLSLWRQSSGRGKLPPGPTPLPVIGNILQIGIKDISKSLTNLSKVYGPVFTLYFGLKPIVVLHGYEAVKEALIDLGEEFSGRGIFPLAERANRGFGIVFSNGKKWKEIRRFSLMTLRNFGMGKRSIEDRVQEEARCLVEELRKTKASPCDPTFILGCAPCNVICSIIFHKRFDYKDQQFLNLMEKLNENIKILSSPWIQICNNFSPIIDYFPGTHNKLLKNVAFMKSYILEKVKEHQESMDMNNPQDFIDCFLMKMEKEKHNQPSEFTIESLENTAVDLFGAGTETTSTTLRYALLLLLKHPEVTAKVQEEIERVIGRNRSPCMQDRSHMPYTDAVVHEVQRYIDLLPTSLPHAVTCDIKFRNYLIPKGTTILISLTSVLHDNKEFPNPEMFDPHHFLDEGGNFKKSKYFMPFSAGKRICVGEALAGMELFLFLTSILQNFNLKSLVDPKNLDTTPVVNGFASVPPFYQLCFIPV

[2] = target: Vascular endothelial growth factor receptor 2 (Homo sapiens, UniProt P35968); assay: Inhibition of human VEGFR2 using poly[Glu:Tyr] (4:1) as substrate measured after 120 mins in presence of [gamma33P]ATP by P81 ion exchange chromatographic method
Sequence of Vascular endothelial growth factor receptor 2 (P35968 whole entry): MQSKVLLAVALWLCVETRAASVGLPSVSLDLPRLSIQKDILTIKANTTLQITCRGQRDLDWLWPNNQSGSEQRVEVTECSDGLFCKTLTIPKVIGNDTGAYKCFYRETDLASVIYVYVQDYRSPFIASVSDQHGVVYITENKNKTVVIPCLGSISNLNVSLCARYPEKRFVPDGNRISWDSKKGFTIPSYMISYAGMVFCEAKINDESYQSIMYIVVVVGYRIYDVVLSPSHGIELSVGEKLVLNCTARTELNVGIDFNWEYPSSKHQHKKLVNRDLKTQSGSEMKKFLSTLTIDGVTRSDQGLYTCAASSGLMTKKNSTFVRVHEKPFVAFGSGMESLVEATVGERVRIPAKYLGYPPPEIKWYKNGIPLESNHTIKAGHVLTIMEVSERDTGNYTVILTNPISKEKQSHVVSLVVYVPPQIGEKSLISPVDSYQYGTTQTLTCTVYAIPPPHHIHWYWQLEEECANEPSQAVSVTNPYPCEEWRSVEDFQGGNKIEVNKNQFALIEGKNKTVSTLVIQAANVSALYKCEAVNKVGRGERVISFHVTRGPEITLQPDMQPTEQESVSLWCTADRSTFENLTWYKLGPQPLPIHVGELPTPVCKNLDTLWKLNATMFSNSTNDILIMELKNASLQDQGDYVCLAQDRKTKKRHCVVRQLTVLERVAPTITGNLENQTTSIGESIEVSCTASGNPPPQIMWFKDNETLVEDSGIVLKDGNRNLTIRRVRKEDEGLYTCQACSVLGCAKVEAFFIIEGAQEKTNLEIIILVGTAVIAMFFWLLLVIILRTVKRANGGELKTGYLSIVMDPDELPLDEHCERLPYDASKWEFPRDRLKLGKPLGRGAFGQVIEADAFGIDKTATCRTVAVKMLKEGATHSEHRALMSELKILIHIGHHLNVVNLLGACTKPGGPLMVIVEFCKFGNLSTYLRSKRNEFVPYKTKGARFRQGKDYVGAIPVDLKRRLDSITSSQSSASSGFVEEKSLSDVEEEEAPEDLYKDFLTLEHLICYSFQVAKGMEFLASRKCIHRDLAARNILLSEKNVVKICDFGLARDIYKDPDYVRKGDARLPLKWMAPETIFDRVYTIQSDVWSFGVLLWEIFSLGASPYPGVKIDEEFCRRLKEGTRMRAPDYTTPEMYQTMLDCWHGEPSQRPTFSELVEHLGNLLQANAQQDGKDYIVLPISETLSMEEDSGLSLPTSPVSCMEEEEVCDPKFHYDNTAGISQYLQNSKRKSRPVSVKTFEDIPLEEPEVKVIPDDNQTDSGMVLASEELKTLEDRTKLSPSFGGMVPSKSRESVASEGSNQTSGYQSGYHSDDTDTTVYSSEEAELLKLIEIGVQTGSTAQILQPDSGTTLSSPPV

[3] = target: T1, Tyrosine-protein kinase BTK; assay: Inhibition of human BTK at 10 uM using KVEKIGEGTYGVVYK as substrate measured after 120 mins in presence of [gamma33P]ATP by P81 ion exchange chromatographic method relative to control
[4] = target: T2, Tyrosine-protein kinase JAK3 (Homo sapiens, UniProt P52333); assay: Inhibition of human JAK3 using GEEEEYFELVKKKK as substrate measured after 120 mins in presence of [gamma33P]ATP by P81 ion exchange chromatographic method
T2 sequence (P52333 whole entry): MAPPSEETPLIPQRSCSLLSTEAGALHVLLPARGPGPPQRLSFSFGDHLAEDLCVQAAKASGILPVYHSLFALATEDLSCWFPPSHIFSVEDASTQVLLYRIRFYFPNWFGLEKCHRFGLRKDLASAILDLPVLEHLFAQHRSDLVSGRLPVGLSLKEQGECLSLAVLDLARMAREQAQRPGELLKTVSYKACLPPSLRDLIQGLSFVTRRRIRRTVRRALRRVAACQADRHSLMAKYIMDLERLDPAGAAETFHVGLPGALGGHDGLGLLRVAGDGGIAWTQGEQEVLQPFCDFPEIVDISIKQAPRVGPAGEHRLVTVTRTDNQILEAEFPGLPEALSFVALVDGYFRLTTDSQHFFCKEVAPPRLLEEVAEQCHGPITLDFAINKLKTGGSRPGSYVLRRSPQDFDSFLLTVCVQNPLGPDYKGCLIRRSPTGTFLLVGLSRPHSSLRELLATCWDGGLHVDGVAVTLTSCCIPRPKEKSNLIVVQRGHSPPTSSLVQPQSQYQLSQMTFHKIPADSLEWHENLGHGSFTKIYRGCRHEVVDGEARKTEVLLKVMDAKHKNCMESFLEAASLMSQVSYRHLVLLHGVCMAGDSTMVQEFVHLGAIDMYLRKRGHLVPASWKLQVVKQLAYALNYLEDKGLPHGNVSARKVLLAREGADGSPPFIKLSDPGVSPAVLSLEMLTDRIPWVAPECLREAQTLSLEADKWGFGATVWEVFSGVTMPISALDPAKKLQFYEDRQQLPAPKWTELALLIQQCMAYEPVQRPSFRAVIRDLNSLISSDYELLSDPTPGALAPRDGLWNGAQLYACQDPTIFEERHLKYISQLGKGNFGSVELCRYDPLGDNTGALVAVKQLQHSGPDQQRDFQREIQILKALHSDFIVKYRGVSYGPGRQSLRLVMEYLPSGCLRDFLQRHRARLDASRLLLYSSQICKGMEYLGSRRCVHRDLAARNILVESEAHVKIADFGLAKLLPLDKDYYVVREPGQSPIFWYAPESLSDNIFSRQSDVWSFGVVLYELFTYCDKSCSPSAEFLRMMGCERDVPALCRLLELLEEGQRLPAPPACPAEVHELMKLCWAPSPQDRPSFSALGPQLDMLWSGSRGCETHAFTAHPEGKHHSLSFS

Cytochrome P450 2D6 = Cytochrome P450 2D6 (Homo sapiens, UniProt P10635); assay: Inhibition of CYP2D6 in human liver microsomes using dextromethorphan as substrate pretreated for 10 mins followed by substrate addition measured after 10 mins in presence of NADPH by LC-MS/MS method; type: ADME
Sequence of Cytochrome P450 2D6 (P10635 whole entry): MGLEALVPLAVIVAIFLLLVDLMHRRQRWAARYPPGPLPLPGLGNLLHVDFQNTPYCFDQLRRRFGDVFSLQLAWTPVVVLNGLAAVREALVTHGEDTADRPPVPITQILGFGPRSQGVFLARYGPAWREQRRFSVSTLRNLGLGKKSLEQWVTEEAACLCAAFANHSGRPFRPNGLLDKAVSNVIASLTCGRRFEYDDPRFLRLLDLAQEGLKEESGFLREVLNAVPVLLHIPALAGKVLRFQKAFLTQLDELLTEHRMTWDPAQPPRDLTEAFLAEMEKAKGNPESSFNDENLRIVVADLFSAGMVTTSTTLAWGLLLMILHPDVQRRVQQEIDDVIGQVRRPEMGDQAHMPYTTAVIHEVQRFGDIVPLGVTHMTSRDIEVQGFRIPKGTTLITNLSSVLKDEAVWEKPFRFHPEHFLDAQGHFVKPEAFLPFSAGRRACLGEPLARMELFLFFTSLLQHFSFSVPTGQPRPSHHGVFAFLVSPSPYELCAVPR

[5] = Intrinsic clearance in human liver microsomes at 1 uM measured after 60 mins in presence of NADPH by LC-MS/MS analysis; type: ADME, microsome; conditions: read-out: CLH
[6] = target: Epidermal growth factor receptor (Homo sapiens, UniProt P00533); assay: Inhibition of human EGFR at 10 uM using poly[Glu:Tyr] (4:1) as substrate measured after 120 mins in presence of [gamma33P]ATP by P81 ion exchange chromatographic method relative to control
Sequence of Epidermal growth factor receptor (P00533 whole entry): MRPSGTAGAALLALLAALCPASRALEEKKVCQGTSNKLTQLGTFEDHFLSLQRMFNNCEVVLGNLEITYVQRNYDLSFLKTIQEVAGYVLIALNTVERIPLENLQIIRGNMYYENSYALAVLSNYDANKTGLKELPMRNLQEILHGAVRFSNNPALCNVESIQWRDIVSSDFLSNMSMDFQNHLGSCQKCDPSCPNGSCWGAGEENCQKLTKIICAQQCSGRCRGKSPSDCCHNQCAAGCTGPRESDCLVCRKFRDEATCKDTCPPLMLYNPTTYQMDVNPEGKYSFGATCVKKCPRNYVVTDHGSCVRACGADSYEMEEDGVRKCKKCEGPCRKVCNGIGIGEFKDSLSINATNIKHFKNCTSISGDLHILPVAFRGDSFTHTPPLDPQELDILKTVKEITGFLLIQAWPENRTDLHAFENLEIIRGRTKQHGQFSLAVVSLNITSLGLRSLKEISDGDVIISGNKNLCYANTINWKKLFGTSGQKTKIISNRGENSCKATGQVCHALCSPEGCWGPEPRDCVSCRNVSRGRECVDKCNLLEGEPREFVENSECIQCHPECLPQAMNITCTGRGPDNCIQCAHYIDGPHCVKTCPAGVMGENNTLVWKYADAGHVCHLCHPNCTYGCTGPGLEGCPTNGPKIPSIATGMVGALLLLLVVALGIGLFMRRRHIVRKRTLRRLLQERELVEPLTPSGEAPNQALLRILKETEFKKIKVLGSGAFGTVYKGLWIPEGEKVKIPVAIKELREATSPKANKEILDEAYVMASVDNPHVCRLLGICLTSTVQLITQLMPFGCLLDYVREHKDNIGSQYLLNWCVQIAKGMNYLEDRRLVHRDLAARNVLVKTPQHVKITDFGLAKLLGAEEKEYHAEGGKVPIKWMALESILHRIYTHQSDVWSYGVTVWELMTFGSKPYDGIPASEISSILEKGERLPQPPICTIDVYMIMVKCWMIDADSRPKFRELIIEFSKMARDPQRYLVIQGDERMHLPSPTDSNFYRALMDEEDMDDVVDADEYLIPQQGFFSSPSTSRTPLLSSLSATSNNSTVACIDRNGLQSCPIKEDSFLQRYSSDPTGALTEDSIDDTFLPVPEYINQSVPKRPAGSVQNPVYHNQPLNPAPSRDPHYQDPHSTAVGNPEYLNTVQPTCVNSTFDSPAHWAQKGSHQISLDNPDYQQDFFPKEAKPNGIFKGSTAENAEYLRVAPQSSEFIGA

[7] = target: T3, Tyrosine-protein kinase Tec (Homo sapiens, UniProt P42680); assay: Inhibition of human TEC using poly[Glu:Tyr] (4:1) as substrate measured after 120 mins in presence of [gamma33P]ATP by P81 ion exchange chromatographic method
T3 sequence (P42680 whole entry): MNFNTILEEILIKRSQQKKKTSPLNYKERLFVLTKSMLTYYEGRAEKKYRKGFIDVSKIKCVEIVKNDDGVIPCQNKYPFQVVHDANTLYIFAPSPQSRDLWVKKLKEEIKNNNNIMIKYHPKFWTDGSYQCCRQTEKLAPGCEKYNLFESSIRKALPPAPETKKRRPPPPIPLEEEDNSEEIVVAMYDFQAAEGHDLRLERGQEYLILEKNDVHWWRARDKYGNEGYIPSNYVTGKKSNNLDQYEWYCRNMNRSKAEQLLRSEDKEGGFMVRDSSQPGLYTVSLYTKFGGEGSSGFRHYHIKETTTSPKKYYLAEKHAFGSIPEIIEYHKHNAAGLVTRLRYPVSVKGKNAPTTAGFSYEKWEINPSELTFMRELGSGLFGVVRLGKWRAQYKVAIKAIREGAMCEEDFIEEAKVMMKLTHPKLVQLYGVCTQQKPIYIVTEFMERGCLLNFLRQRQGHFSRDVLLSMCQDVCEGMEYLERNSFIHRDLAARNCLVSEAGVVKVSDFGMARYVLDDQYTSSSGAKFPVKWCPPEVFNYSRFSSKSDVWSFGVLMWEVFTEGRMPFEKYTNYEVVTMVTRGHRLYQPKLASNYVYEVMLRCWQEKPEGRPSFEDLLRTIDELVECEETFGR

[8] = Apparent permeability from apical to basolateral side in MDCK2-MDR1 cells at 2 uM after 2.5 hrs LC-MS/MS analysis; type: ADME, cell-based, Canis lupus familiaris; conditions: dog, MDCK-MDR1

T1 sequence (Q06187 whole entry): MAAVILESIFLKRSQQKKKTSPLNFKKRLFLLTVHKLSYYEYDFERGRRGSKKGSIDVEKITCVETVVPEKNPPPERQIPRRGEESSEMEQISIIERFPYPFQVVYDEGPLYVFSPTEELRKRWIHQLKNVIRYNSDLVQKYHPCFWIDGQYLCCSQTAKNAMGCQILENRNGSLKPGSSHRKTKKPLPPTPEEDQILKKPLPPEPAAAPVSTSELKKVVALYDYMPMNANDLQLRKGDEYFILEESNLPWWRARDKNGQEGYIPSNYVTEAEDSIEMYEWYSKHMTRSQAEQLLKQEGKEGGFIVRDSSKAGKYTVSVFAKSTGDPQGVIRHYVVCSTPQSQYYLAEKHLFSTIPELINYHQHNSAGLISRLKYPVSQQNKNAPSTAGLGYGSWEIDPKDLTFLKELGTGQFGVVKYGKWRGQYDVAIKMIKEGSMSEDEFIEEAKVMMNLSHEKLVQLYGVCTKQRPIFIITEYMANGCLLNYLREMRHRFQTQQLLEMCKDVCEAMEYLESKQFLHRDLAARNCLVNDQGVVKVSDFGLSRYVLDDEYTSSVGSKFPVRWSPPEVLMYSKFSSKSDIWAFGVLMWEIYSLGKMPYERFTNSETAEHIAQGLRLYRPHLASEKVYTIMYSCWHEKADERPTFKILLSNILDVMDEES

IC50 [1]	IC50 (Cytochrome P450 3A4)	IC50 (Cytochrome P450 2C9)	IC50 [2]	inhibition [3]	IC50 [4]	IC50 (Cytochrome P450 2D6)	CLint scaled at 1 µM [5]	inhibition [6]	IC50 [7]	Papp A→B at 2.5 h, 2 µM [8]	SMILES
> 10 µM	13.3 µM	29.1 µM	> 10 µM	14%	> 10 µM	> 50 µM	18 mL/min/kg	1%	> 10 µM	7.3 ×10⁻⁶ cm/s	C=CC(=O)N[C@H]1COC[C@H]1Nc1ncc(OCc2c(F)c(OC)cc(OC)c2F)cn1
> 10 µM	6.9 µM	3.7 µM	> 10 µM	7%	> 10 µM	35 µM	165 mL/min/kg	6%	> 10 µM	8.6 ×10⁻⁶ cm/s	C=CC(=O)Nc1cccc(C)c1Nc1ncc(OCc2c(F)c(OC)cc(OC)c2F)cn1
> 10 µM	3 µM	0.9 µM	> 10 µM	-7%	> 10 µM	12.5 µM	41 mL/min/kg	1%	> 10 µM	0.35 ×10⁻⁶ cm/s	C=CC(=O)Nc1cccc(C)c1Nc1ncc2cc(-c3c(Cl)c(OC)cc(OC)c3Cl)ccc2n1
